Experimental data published in article PMC7051184, “C9orf72 arginine-rich dipeptide repeat proteins disrupt karyopherin-mediated nuclear import” (eLife, 2020).
Where a SMILES comes first, the peptide text is derived from it.

Tests used:
Nup62 = experiment: DPR aggregation assay and western blot, Nup62; assay type: biochemical, human; conditions: 100 µM 10mer in 2.5 mg/ml HEK lysate, normalized to untreated HEK
Procedure: (§1) Supernatant and pellet fractions (for all 5 DPRs, and control/buffer only) were prepared as in the nuclear transport assays, by adding 100 µM 10mers to 2.5 mg/ml HEK lysate in 100 µL TRB. Supernatants were boiled in Laemmli (BioRad) for 5 min. Pellets were boiled for 15 min followed by sonication in order to fully disperse aggregates for SDS-PAGE. Equal volumes of supernatant and pellet fractions were run on 4–12% Bolt Bis-Tris Plus gels (ThermoFisher), transferred to nitrocellulose membrane using an iBlot2 dry blotting system (ThermoFisher). Protein loading was analyzed by BLOT-Faststain (G-biosciences, St. Louis, MO), according to the manufacterers’ instructions. For immunodetection, membranes were blocked with 5% non-fat milk in TBST and probed by sequential incubation with the primary antibodies as detailed in the table below. Detection was by HRP-conjugated secondary antibodies/chemiluminescence using an ImageQuant LAS 4000 system (GE, Chicago, IL). To permit sequential probing of membranes without stripping, signals were quenched by incubation with prewarmed 30% H20_2 for 20 min ([Sennepin et al., 2009]). Band intensities were measured by ImageQuant software. For pellet vs. supernatant fractions, all were expressed as percent untreated control. For blots in Figure 1E, samples were run on 4–20% SDS PAGE minigels (ThermoFisher) and blotted to PVDF membranes (Immun-Blot PVDF, Bio-Rad) using the Bio-Rad TransBlot Turbo apparatus, and probed as above. The chemiluminescence signal was captured with a Bio-Rad ChemiDoc XRS+ digital imaging system.

DDX3X = experiment: DPR aggregation assay and western blot, DDX3X; assay type: biochemical, human; conditions: normalized to untreated HEK cells on the same membrane
Procedure: as §1

[1] = biological target: importin β-mediated nuclear import of Rango (Homo sapiens, UniProt Q14974); experiment: Fractionated Rango transport assay (aggregates present or supernatant only), HeLa; assay type: cell-based
importin β-mediated nuclear import of Rango, sequence (Q14974 whole entry): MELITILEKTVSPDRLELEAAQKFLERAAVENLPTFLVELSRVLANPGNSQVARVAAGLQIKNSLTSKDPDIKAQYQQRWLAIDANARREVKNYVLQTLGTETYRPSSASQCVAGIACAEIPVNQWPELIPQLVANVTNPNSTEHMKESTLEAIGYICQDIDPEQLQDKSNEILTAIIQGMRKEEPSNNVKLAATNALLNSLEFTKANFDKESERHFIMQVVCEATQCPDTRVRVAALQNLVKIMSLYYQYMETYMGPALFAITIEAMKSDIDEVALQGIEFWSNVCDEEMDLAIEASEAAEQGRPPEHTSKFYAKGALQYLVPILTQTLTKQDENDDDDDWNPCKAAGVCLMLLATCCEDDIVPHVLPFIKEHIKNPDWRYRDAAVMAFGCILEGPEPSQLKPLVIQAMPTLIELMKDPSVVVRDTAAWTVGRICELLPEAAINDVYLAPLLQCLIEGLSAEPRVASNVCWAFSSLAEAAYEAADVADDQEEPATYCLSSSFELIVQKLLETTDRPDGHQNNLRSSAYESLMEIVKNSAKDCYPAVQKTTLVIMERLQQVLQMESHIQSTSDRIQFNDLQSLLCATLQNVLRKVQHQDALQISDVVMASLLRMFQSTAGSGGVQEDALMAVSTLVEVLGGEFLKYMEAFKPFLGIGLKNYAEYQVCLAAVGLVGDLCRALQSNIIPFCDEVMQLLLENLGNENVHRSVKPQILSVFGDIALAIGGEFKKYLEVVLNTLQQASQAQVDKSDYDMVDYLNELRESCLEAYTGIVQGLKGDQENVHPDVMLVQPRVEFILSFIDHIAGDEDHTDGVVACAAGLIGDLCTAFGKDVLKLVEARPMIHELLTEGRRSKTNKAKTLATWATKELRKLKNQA
Procedure: A single cell-derived clone of HeLa cells (ATCC, Manassas, VA; mycoplasma negative and validated by STR profiling) were maintained in OptiMEM (Gibco/ThermoFisher) with 4% FBS and plated on uncoated optical glass-bottom 96 well plates, at appropriate densities to reach 70–90% confluence on the day of the transport assay. To permeabilize, cells were rinsed for 2 min in ice-cold PBS, and permeabilized on ice for 10 min in 15–30 µg/mL digitonin (Calbiochem, San Diego, CA) in permeabilization buffer (PRB, 20 mM HEPES, 110 mM KOAc, 5 mM Mg(OAc)2, 0.5 mM EGTA, 250 mM sucrose, pH 7.5, with protease inhibitor cocktail). Following permeabilization, cells were placed on ice and rinsed 3 × 5 min in transport buffer (TRB, 20 mM HEPES, 110 mM KOAc, 2 mM Mg(OAc)2, 5 mM NaOAc, 0.5 mM EGTA, 250 mM sucrose, pH 7.3, with protease inhibitor cocktail). The optimal digitonin concentration varied by cell density and passage number, and was optimized prior to each set of assays for the ability to permeabilize the majority of plasma membranes while maintaining nuclear exclusion of a 70 kD fluorescent dextran (ThermoFisher).
Reaction mixes consisting of 2.5 mg/ml lysate, ER, fluorescent cargo (200 nM Rango and YFP-M9-CFP, 500 nM GST-GFP-NLS), Hoechst, DPRs, RNA, or inhibitors (100 µM importazole (IPZ, Millipore Sigma); 0.8 mg/mL wheat germ agglutinin (WGA, Millipore Sigma) were assembled on ice during cell permeabilization. DPRs or inhibitors were allowed to equilibrate in cell lysate for at least 30 min prior to initiation of transport. Every plate included: (1) Cargo alone: fluorescent cargo, but no ER or lysate, (2) Untreated controls: fluorescent cargo, ER, and lysate, and (3) Inhibitor: fluorescent cargo, ER, lysate, and IPZ (Rango and GST-GFP-NLS reactions) or WGA (YFP-M9-CFP). Preassembled transport reactions were then transferred onto permeabilized cells via multichannel pipette, and allowed to proceed at room temperature for 2 hr (Rango, YFP-M9-CFP) or 4 hr (GST-GFP-NLS). Cells were fixed in 4% paraformaldehyde/PBS, rinsed 2x with PBS, and transferred to 50% glycerol/PBS for immediate imaging.
For a subset of neuron transport assays, transport was monitored live via time lapse imaging every 5 min for 30 min. […]
Multiple non-overlapping fields per well (4 for time-lapse imaging, 9-16 for fixed imaging), were captured at 40x on an ImageXpress Micro XLS high-content microscope (Molecular Devices, San Jose, CA), and the ratio of nuclear to cytoplasmic fluorescence intensity was calculated using the MetaXpress automated translocation-enhanced module. […] Resulting N/C ratios were expressed as % untreated, to permit comparisons across biological replicates.

Compound: N=C(N)NCCC[C@H](NC(=O)[C@@H]1CCCN1C(=O)[C@H](CCCNC(=N)N)NC(=O)[C@@H]1CCCN1C(=O)[C@H](CCCNC(=N)N)NC(=O)[C@@H]1CCCN1C(=O)[C@H](CCCNC(=N)N)NC(=O)[C@@H]1CCCN1C(=O)[C@H](CCCNC(=N)N)NC(=O)[C@@H]1CCCN1C(=O)[C@H](CCCNC(=N)N)NC(=O)[C@@H]1CCCN1C(=O)[C@H](CCCNC(=N)N)NC(=O)[C@@H]1CCCN1C(=O)[C@H](CCCNC(=N)N)NC(=O)[C@@H]1CCCN1C(=O)[C@H](CCCNC(=N)N)NC(=O)[C@@H]1CCCN1C(=O)[C@H](CCCNC(=N)N)NC(=O)[C@@H]1CCCN1)C(=O)O [PR10] (H-PRPRPRPRPRPRPRPRPRPR-OH; N-terminus and C-terminus assumed)
- Nup62 band density, Pellet (Nup62; Blot 1): 204.0 % control
- Nup62 band density, Supernatant (Nup62; Blot 1): 154.3 % control
- Nup62 band density, Pellet (Nup62; Blot 2): 227.1 % control
- Nup62 band density, Supernatant (Nup62; Blot 2): 111.0 % control
- DDX3X band density, % control (DDX3X; Pellet, Blot 1): 156.6 % control
- DDX3X band density, % control (DDX3X; Pellet, Blot 2): 221.4 % control
- DDX3X band density, % control (DDX3X; Supernatant, Blot 1): 10.9 % control
- DDX3X band density, % control (DDX3X; Supernatant, Blot 2): 1.8 % control
- Rango import with supernatant only (aggregates removed by centrifugation) [1]: nuclear import remained perturbed
- Rango import with supernatant only plus RNA ([1]; RNA added): restored by the addition of RNA
